# Target: T1, human TLR7 (Homo sapiens, UniProt Q9NYK1)
# T1 construct: expressed in transfected cells; host or cells: HEK293 (HEK-Blue-7)
# T1 sequence (Q9NYK1 27-1049): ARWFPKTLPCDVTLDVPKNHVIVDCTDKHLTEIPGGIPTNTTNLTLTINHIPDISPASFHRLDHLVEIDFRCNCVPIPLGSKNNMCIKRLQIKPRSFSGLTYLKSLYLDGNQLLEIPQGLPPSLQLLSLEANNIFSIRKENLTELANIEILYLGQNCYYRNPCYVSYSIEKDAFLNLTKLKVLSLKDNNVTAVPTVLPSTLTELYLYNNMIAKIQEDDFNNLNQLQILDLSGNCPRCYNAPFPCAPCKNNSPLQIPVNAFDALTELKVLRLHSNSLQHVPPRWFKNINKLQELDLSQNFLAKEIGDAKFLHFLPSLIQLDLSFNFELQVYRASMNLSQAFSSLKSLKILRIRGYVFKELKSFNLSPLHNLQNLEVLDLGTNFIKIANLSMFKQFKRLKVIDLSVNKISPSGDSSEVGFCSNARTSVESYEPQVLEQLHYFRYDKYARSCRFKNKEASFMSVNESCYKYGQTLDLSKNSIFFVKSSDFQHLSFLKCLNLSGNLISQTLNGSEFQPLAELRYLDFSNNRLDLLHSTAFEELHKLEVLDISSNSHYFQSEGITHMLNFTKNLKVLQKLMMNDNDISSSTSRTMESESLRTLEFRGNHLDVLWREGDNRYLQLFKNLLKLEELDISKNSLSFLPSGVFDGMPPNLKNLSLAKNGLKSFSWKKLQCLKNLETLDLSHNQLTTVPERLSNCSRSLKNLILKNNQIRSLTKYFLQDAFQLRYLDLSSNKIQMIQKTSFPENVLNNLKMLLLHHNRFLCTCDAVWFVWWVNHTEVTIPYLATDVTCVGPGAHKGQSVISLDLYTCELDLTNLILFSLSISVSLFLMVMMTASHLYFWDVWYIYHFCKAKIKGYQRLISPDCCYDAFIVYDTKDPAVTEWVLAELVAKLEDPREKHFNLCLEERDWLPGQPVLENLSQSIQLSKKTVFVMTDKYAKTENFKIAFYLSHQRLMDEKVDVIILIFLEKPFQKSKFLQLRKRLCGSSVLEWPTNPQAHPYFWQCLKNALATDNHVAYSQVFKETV
# Assay: Human TLR7 reporter gene assay (NF-κB induction), HEK-Blue-7 cells
# Type: cell-based
# Settings: human TLR7-specific reporter gene assay; Inactive = no activity up to 500 μg/mL
# Text: (§1) Human TLR-7/-8 Reporter Gene Assays (NF-κB Induction).
# (§2) The induction of NF-κB was quantified using HEK-Blue-7 (hTLR7-specific) and HEK-Blue-8 (hTLR8-specific) cells. HEK293 cells stably co-transfected with human TLR7 or human TLR8, MD2, and secreted alkaline phosphatase (sAP), were maintained in HEK-Blue™ Selection medium containing zeocin and normocin. Stable expression of secreted alkaline phosphatase (sAP) under control of NF-κB/AP-1 promoters is inducible by appropriate TLR agonists, and extracellular sAP in the supernatant is proportional to NF-κB induction.
# (§3) HEK293 cells stably co-transfected with the appropriate hTLR (or NOD) and secreted alkaline phosphatase (sAP) were maintained in HEK-Blue™ Selection medium. Stable expression of secreted alkaline phosphatase (sAP) under control of NF-κB/AP-1 promoters is inducible by appropriate TLR/NOD agonists, and extracellular sAP in the supernatant is proportional to NF-κB induction.
row,hTLR7-agonistic Activity (EC50),Structure (SMILES)
1,Inactive,"CCCCc1nc2c(N)nc(-c3cccnc3)cc2n1Cc1ccccc1 [Compound 23d, 1-Benzyl-2-butyl-6-(pyridin-3-yl)-1H-imidazo[4,5-c]pyridin-4-amine]"
2,Inactive,"CCCCc1nc2c(N)nc(-c3ccsc3)cc2n1Cc1ccccc1 [Compound 23f, 1-Benzyl-2-butyl-6-(thiophen-3-yl)-1H-imidazo[4,5-c]pyridin-4-amine]"

# Same assay, conditions: human TLR7-specific reporter gene assay; Inactive = no activity up to 500 μg/mL; read-out: hTLR7-agonistic Activity (EC50)
row,EC50 [µM],Structure (SMILES)
1,1.8,"CCCCc1nc2c(N)nc(Cc3ccc(C)cc3)cc2n1Cc1ccccc1 [Compound 23h, 1-Benzyl-2-butyl-6-(4-methylbenzyl)-1H-imidazo[4,5-c]pyridin-4-amine]"
2,1.72,"CCCCc1nc2c(N)nc(Nc3ccccc3)cc2n1Cc1ccccc1 [Compound 19e, 1-Benzyl-2-butyl-N^6-phenyl-1H-imidazo[4,5-c]pyridine-4,6-diamine]"

# Same assay, conditions: primary screen; read-out: TLR7-specific agonistic activity EC50
row,EC50 [µM],Structure (SMILES)
1,0.37,"CCCCc1nc2c(N)nc(NCc3cccc(CN)c3)cc2n1Cc1ccccc1 [Compound 19q, N^6-(3-(aminomethyl)benzyl)-1-benzyl-2-butyl-1H-imidazo[4,5-c]pyridine-4,6-diamine]"

# Target: T2, human TLR8 (Homo sapiens, UniProt Q9NR97)
# T2 construct: expressed in transfected cells; host or cells: HEK293 (HEK-Blue-8)
# T2 sequence (Q9NR97 27-1041): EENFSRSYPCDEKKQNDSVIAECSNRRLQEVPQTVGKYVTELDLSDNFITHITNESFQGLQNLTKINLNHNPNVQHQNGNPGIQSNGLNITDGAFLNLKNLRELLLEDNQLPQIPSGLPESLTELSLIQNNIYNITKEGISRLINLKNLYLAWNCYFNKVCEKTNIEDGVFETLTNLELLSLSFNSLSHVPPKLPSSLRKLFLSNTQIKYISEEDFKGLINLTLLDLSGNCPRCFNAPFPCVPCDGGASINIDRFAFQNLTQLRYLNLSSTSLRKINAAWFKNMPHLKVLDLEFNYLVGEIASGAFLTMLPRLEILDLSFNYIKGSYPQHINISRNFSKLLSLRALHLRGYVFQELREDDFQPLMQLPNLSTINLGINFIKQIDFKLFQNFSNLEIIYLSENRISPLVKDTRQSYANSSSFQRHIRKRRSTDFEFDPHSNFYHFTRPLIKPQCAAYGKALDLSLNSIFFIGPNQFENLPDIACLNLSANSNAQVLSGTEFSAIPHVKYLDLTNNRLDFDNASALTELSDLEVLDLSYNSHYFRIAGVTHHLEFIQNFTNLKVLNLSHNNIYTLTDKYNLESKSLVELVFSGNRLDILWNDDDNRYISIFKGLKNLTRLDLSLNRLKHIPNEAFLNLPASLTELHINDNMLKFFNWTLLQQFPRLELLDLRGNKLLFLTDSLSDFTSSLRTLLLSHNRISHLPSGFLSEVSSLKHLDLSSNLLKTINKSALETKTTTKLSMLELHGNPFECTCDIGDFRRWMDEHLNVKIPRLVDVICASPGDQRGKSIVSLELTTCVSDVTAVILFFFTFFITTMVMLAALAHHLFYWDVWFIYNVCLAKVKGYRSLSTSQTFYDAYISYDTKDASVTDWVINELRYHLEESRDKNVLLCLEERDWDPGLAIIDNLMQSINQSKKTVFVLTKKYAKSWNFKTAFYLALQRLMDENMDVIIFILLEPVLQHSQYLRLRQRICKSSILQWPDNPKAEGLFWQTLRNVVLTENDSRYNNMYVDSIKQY
# Assay: Human TLR8 reporter gene assay (NF-κB induction), HEK-Blue-8 cells
# Type: cell-based
# Settings: human TLR 8-specific reporter gene assays
# Text: as §1, §2, §3
row,hTLR8 Agonistic Activity (EC50),Structure (SMILES)
1,Inactive,"CCCCCn1c(N)nc2c(-c3ccccc3)cccc21 [Compound A31l, 1-pentyl-4-phenyl-1H-benzo[d]imidazol-2-amine]"
2,Inactive,"CCCCCn1c(N)nc2cnccc21 [Compound A27b, 1-Pentyl-1H-imidazo[4,5-c]pyridin-2-amine]"
3,Inactive,"CCCCCn1c(N)nc2c(Br)cccc21 [Compound A31i, 4-Bromo-1-pentyl-1H-benzo[d]imidazol-2-amine]"
4,Inactive,"CCCCC1(O)C(N)=Nc2ccccc21 (stereo not shown) [Compound A5, 2-amino-3-butyl-3H-indol-3-ol]"
5,Inactive,"CCCCOC(=O)n1c(N)nc2ccccc21 [Compound A9, butyl 2-amino-1H-benzo[d]imidazole-1-carboxylate]"
6,Inactive,"CCCCCn1c(NC(C)=O)nc2ccccc21 [Compound A10, N-(1-pentyl-1H-benzo[d]imidazol-2-yl)acetamide]"
7,Inactive,"CCCCCn1c(N)nc2c(C(F)(F)F)cccc21 [Compound A31h, 1-Pentyl-4-(trifluoromethyl)-1H-benzo[d]imidazol-2-amine]"
8,Inactive,"NCc1cccc(Cn2c(N)nc3ccccc32)c1 [Compound A8f, 1-(3-(aminomethyl)benzyl)-1H-benzo[d]imidazol-2-amine]"
9,Inactive,"CCCCCn1c(N)nc2ccncc21 [Compound A27c, 3-Pentyl-3H-imidazo[4,5-c]pyridin-2-amine]"
10,Inactive,"CCCCCn1c(N)nc2c(F)cccc21 [Compound A31f, 4-Fluoro-1-pentyl-1H-benzo[d]imidazol-2-amine]"
11,Inactive,"CCCCCn1c(N)nc2c(OCc3ccccc3)cccc21 [Compound A35, 4-Benzyloxy-1-pentyl-1H-benzoimidazol-2-ylamine]"
12,Inactive,"CCCCCn1c(N)nc2cccnc21 [Compound A27d, 3-Pentyl-3H-imidazo[4,5-b]pyridin-2-amine]"
13,Inactive,"CCCCCn1c(N)nc2cc3ccccc3cc21 [Compound A13, 1-Pentyl-1H-naphtho[2,3-d]imidazol-2-amine]"
14,Inactive,"CCCCCn1c(N)nc2c(Cl)cccc21 [Compound A31g, 4-Chloro-1-pentyl-1H-benzo[d]imidazol-2-amine]"
15,Inactive,"Nc1nc2ccccc2n1Cc1ccccc1 [Compound A8d, 1-Benzyl-1H-benzo[d]imidazol-2-amine]"
16,Inactive,"CCCCCn1c(N)nc2c(Cc3ccccc3)cccc21 [Compound A31m, 4-benzyl-1-pentyl-1H-benzo[d]imidazol-2-amine]"
17,Inactive,"CCCCCn1c(N)nc2ccc3ccccc3c21 [Compound A18, 1-pentyl-1H-naphtho[1,2-d]imidazol-2-amine]"
18,Inactive,"CCCCCn1c(N)nc2c([N+](=O)[O-])cccc21 [Compound A39, 4-Nitro-1-pentyl-1H-benzoimidazol-2-ylamine]"
19,Inactive,"CCCCCn1c(N)nc2ncccc21 [Compound A27a, 1-Pentyl-1H-imidazo[4,5-b]pyridin-2-amine]"

# Same assay, conditions: human TLR 8-specific reporter gene assays; read-out: hTLR8 Agonistic Activity (EC50)
row,EC50 [µM],Structure (SMILES)
1,7.12,"CCCCCn1c(N)nc2c(N(C)C)cccc21 [Compound A31k, N^4,N^4-demethyl-1-pentyl-1H-benzo[d]imidazole-2,4-diamine]"
2,1.65,"CCCCCn1c(N)nc2c(CC)cccc21 [Compound A31j, 4-Ethyl-1-pentyl-1H-benzo[d]imidazol-2-amine]"
3,4.57,"CCCCCn1c(N)nc2cc(C)ccc21 [Compound A31b, 5-Methyl-1-pentyl-1H-benzo[d]imidazol-2-amine]"
4,7.3,"CCCCn1c(N)nc2ccccc21 [Compound A8a, 1-butyl-1H-benz[d]imidazol-2-amine]"
5,6.61,"CCCCCn1c(N)nc2cccc(C)c21 [Compound A31d, 7-Methyl-1-pentyl-1H-benzo[d]imidazol-2-amine]"
6,5.01,"CCCCCn1c(N)nc2c(O)cccc21 [Compound A36, 2-Amino-1-pentyl-1H-benzoimidazol-4-ol]"
7,7.21,"CCCCCn1c(N)nc2ccc(C)cc21 [Compound A31c, 6-Methyl-1-pentyl-1H-benzo[d]imidazol-2-amine]"
8,6.6,"CCCCCn1c(N)nc2c(N)cccc21 [Compound A40, 1-Pentyl-1H-benzoimidazole-2,4-diamine]"
9,3.96,"CCCCCCn1c(N)nc2ccccc21 [Compound A8c, 1-Hexyl-1H-benzo[d]imidazol-2-amine]"

# Same assay, conditions: primary screens
row,TLR8-agonistic activity EC50,Structure (SMILES)
1,abrogated activity,"CCCCCn1c(N)nc2c(-c3ccccc3)cccc21 [Compound A31l, 1-pentyl-4-phenyl-1H-benzo[d]imidazol-2-amine]"
2,inactive,"CCCCC1(O)C(N)=Nc2ccccc21 (stereo not shown) [Compound A5, 2-amino-3-butyl-3H-indol-3-ol]"
3,completely abrogated activity,"CCCCOC(=O)n1c(N)nc2ccccc21 [Compound A9, butyl 2-amino-1H-benzo[d]imidazole-1-carboxylate]"
4,completely abrogated activity,"CCCCCn1c(NC(C)=O)nc2ccccc21 [Compound A10, N-(1-pentyl-1H-benzo[d]imidazol-2-yl)acetamide]"
5,abrogated activity,"CCCCCn1c(N)nc2c(OCc3ccccc3)cccc21 [Compound A35, 4-Benzyloxy-1-pentyl-1H-benzoimidazol-2-ylamine]"
6,abrogated activity,"CCCCCn1c(N)nc2c(Cc3ccccc3)cccc21 [Compound A31m, 4-benzyl-1-pentyl-1H-benzo[d]imidazol-2-amine]"
7,inactive,"CCCCCn1c(N)nc2c([N+](=O)[O-])cccc21 [Compound A39, 4-Nitro-1-pentyl-1H-benzoimidazol-2-ylamine]"

# Same assay, conditions: primary screens; read-out: TLR8-agonistic activity EC50
row,EC50 [µM],Structure (SMILES)
1,3.74,"CCCCCn1c(N)nc2c(OC)cccc21 [Compound A31e, 4-Methoxy-1-pentyl-1H-benzo[d]imidazol-2-amine]"
2,3.16,"CCCCCn1c(N)nc2c3ccccc3ccc21 [Compound A23, 3-Pentyl-3H-naphtho[1,2-d]imidazol-2-amine]"
3,3.23,"CCCCCn1c(N)nc2ccccc21 [Compound A8b, 1-Pentyl-1H-benzo[d]imidazol-2-amine]"

# Reference: patent US10471139B2, “Toll-like receptor agonists” (The University of Kansas, priority 2013, dated 2019)
